Test results from patent US5476661A, “Compositions for topical application to skin, hair and nails” (Elizabeth Arden Co., Division of Conopco, Inc., priority 1994, dated 1995).
“Also recorded” adds a separate entry of the source. Where two headings read alike, the source gives them in different places.

Key:
keratinocytes [1] = settings: cited from earlier work
keratinocytes [2] = settings: Bikle et al., cited from earlier work; for conversion in skin / keratinocytes: MacLaughlin et al.
[3] = cited from earlier work
[4] = tested on: normal human keratinocytes; experiment: Vitamin D3 metabolites' uptake by keratinocytes (cell associated radioactivity); assay type: in vitro ADME; settings: for Uptake by keratinocytes, cell associated radioactivity: 60 picomolar, mean of duplicate; for uptake rate by keratinocytes / skin cells: Table 6 summary
Procedure: Normal human keratinocytes were grown to confluence in Keratinocyte growth medium (KGM) containing 0.15 mM calcium. Medium was changed to fresh medium. The cells were then incubated in duplicate with 10,000 cpm (60 picomolar, or 25 picogram/ml medium) of 25-OH-D3 or 1,25-(OH)2 D3 for various times (0 to 240 minutes). At different time intervals indicated in the Table below, the medium of appropriate wells were aspirated, and the wells were washed three times with a 0.2% bovine serum albumin solution in 50 mM Tris/0.15M sodium chloride buffer pH 7.4. After the wash the cells in the wells were dissolved in 0.1N sodium hydroxide, neutralized with 0.1N hydrochloric acid, mixed with 5 ml of scintillation fluid (Ecolume) and counted in a beta counter. The amount of cpm associated with the cells was calculated as the percent of total cpm added for each time point studied. Data in the table is expressed as cell associated radioactivity as % of total added. Each reported result is a mean of duplicate determinations.

[5] = tested on: normal human keratinocytes; experiment: DNA synthesis rate (3H-thymidine incorporation) in normal human keratinocytes; assay type: cell-based
Text: Initiation of differentiation of keratinocytes is accompanied by inhibition of their growth. The rate of synthesis of DNA determined by the incorporation of radiolabeled substrate [^3 H] thymidine, is an indicator of the rate of growth of the cells. A decrease in DNA synthesis therefore indicates decrease in growth and increase in differentiation of keratinocytes.
Methodology Used for Determining the Rate of DNA Synthesis in Keratinocytes After Treatment With Various Actives
1. Normal human keratinocytes isolated from neonatal foreskins by trypsin treatment were grown in DME medium/10% fetal calf serum in the presence of irradiated 3T3 mouse fibroblasts for establishing dividing keratinocyte colonies. Keratinocytes were grown under the above condition until their third passage.
2. For the experiments, third passage keratinocytes were plated into a serum-free keratinocyte growth medium (KGM; obtained from Clonetics Corporation, San Diego, Calif.) containing 0.15 mM calcium. 20,000 to 30,000 cells were plated into each well of 24 well cell culture plates and grown for 5 days, until the cells reach about 80% confluence.
3. Medium was changed to fresh medium and the various test materials were added to the medium from an ethanolic stock solution (10 A.M.). The final ethanol concentration in the cultures was kept below 0.2%. Control cultures received no tested material but were dosed with 0.2% ethanol. Each compound or combination was tested in three separate wells. By 4 P.M., 1 uCi of ^3 H-thymidine (AmerSham Corp., Sp activity 40 Ci/mmol) was added to the 1 ml medium in each well. The cells were incubated overnight and 24 hours later (10 A.M. next day) the amount of ^3 H-thymidine associated with the cellular DNA of keratinocytes was assessed as described below.
4. The medium was aspirated, and the wells washed with 1 ml phosphate-buffered saline. The DNA and proteins of the cells in the plate were then precipitated by adding 1 ml of ice-cold 10% trichloroacetic acid (TCA). The plates were left on ice for 30 minutes to complete the precipitation process. TCA was then aspirated and each well was then washed four times with 5% TCA. The plates were then dried on a filter pad and the cells in the wells were dissolved in 0.5 ml of 0.1N sodium hydroxide. The sodium hydroxide was then neutralized using 0.1N hydrochloric acid and the solution (1 ml total volume) was then transferred to a scintillation vial. 100 ul samples from each vial were used for protein assay using BCA protein assay reagent obtained from Pierce Chemical Company. 8 ml of a scintillation fluid (Ecolume) was added to the rest of the solution in the vial, and the vials were counted in a scintillation counter to determine the amount of radioactivity in each vial. The DNA synthesis rate was then calculated as cpm ^3 H thymidine incorporated into total cellular DNA/microgram of cell protein for each individual well. Mean and standard deviation for each group was also calculated.
5. All lipids listed in Tables 1-5 below were synthesized in-house. 25-OH-D3 and 1,25-(OH)2 D3 were obtained from Hoffman La Roche. Vitamin D3 was obtained from Sigma.

[6] = tested on: HL-60 cells (human myelocytic leukemia cells); settings: cited from earlier work
[7] = Homo sapiens, Keratinocyte, Table 5, 3 μM lipid, 0 nM 25-OH-D3, * = statistically significant growth inhibition

For `C=C1/C(=C\C=C2/CCC[C@]3(C)[C@@H]([C@H](C)CCCC(C)(C)O)CC[C@@H]23)C[C@@H](O)C[C@@H]1O` [1,25-(OH)2 D3, 1,25-dihydroxycholecalciferol], the “effect on DNA synthesis and differentiation of keratinocytes” value (keratinocytes [1]; exogenous or endogenous, Pillai et al., Hashimoto et al.) is given as “inhibits DNA synthesis (i.e., inhibits growth) and induces differentiation of keratinocytes”, the “catabolism to inactive metabolites by keratinocytes” value (keratinocytes [2]) is given as “catabolized to inactive metabolites rapidly” and the “degradation within skin cells” value (keratinocytes [2]; exogenously added) is given as “rapidly degraded within the skin cells”. For the same compound, the “toxicity of higher blood levels” value ([3]; higher levels of 1,25-(OH)2 D3 in blood) was “increase blood calcium levels and may cause heart problems, muscle weakness and contraction which may be fatal”, the “blood level after topical application” value ([3]; in vivo) was “increases blood level of 1,25-(OH)2 D3” and the “Uptake by keratinocytes, cell associated radioactivity” value (from here on “Uptake by keratinocytes”) ([4]; 0 minutes) was 0.8 % of total added. The “Uptake by keratinocytes” value ([4]; 2 minutes) was 2.7 % of total added, the “Uptake by keratinocytes” value ([4]; 5 minutes) was 4.2 % of total added and the “Uptake by keratinocytes” value ([4]; 10 minutes) was 13.0 % of total added. For the same compound, the “Uptake by keratinocytes” value ([4]; 15 minutes) was 10.0 % of total added, the “Uptake by keratinocytes” value ([4]; 30 minutes) was 20.0 % of total added and the “Uptake by keratinocytes” value ([4]; 60 minutes) was 15.6 % of total added. The “Uptake by keratinocytes” value ([4]; 120 minutes) was 26.2 % of total added, the “Uptake by keratinocytes” value ([4]; 240 minutes) was 30.8 % of total added and the “uptake rate by keratinocytes / skin cells” value [4] was “rapidly taken up”. It also gave an activity at 0.001 µM ([5]; Homo sapiens, Keratinocyte, read-out: DNA synthesis of keratinocytes, Table 1, compound alone, 1 nM, Test 1) of 115 ± 7.7%, an activity at 0.01 µM ([5]; Homo sapiens, Keratinocyte, read-out: DNA synthesis of keratinocytes, Table 1, compound alone, 10 nM, Test 1) of 108 ± 8.7% and an activity at 0.01 µM ([5]; Homo sapiens, Keratinocyte, read-out: DNA synthesis of keratinocytes, Table 1, compound alone, 10 nM, Test 2) of 91.9 ± 5.3%. It also gave an activity at 0.01 µM ([5]; Homo sapiens, Keratinocyte, read-out: DNA synthesis of keratinocytes, Table 1, compound alone, 10 nM, Test 3) of 91.8 ± 4.5%, an activity at 0.1 µM ([5]; Homo sapiens, Keratinocyte, read-out: DNA synthesis of keratinocytes, Table 1, compound alone, 100 nM, Test 1, * = statistically significant growth inhibition) of 102 ± 16.7% and an activity at 0.1 µM ([5]; Homo sapiens, Keratinocyte, read-out: DNA synthesis of keratinocytes, Table 1, compound alone, 100 nM, Test 2, * = statistically significant growth inhibition) of 86 ± 7.7%. For the same compound, the activity at 0.1 µM ([5]; Homo sapiens, Keratinocyte, read-out: DNA synthesis of keratinocytes, Table 1, compound alone, 100 nM, Test 3) was 90.3 ± 9.5%, the activity at 1 µM ([5]; Homo sapiens, Keratinocyte, read-out: DNA synthesis of keratinocytes, Table 1, compound alone, 1000 nM, Test 1, * = statistically significant growth inhibition) was 71.5 ± 2.9% and the activity at 1 µM ([5]; Homo sapiens, Keratinocyte, read-out: DNA synthesis of keratinocytes, Table 1, compound alone, 1000 nM, Test 2, * = statistically significant growth inhibition) was 56.3 ± 14.1%. It also gave an activity at 0.01 µM ([5]; Homo sapiens, Keratinocyte, read-out: DNA synthesis of keratinocytes, Table 4, 10 nM vitamin D3 or metabolite, no ceramide) of 91.8 ± 4.6%, an activity at 0.1 µM ([5]; Homo sapiens, Keratinocyte, read-out: DNA synthesis of keratinocytes, Table 4, 100 nM vitamin D3 or metabolite, no ceramide) of 90.3 ± 9.5% and a minimal effective concentration ([5]; Homo sapiens, Keratinocyte, read-out: concentration at which statistically significant cell growth inhibition was consistently observed) of 1 µM.

`CCCCCCCCCCCCCCC(O)CN(CCO)C(C)=O` (stereo not drawn) [pseudoceramide (Formula C)] gave an activity at 3 µM [5, 7] of 51.4 ± 4%.

In the case of `C=C1CC[C@H](O)C/C1=C/C=C1\CCC[C@]2(C)[C@@H]([C@H](C)CCCC(C)C)CC[C@@H]12` [vitamin D3], the keratinocyte prodifferentiating activity (keratinocytes [1]; applied topically to skin, MacLaughlin et al.) is listed as “neither has keratinocyte prodifferentiating activity”, the “conversion in skin / keratinocytes” value (keratinocytes [2]) is listed as “nor is it converted in the skin to 25-OH-D3 derivative” and the “statistically significant growth inhibition” value ([5]; Table 4 summary, vitamin D3 alone) is listed as “does not show statistically significant growth inhibition”.

`CCCCCCCCCCCCC/C=C/C(O)C(CO)NC(C)=O` (stereo not drawn) [Ceramide (Formula A)] gave an activity at 0.3 µM ([5]; Homo sapiens, Keratinocyte, Table 2, ceramide alone, 0.3 μM, Test 3) of 146 ± 21%, an activity at 1 µM ([5]; Homo sapiens, Keratinocyte, Table 2, ceramide alone, 1.0 μM, Test 1, read-out: DNA synthesis of keratinocytes) of 115 ± 11% and an activity at 1 µM ([5]; Homo sapiens, Keratinocyte, Table 2, ceramide alone, 1.0 μM, Test 2, read-out: DNA synthesis of keratinocytes) of 83.1 ± 6%. The activity at 3 µM ([5]; Homo sapiens, Keratinocyte, Table 2, ceramide alone, 3.0 μM, Test 3) was 112 ± 13%, the activity at 10 µM ([5]; Homo sapiens, Keratinocyte, Table 2, ceramide alone, Test 1) was 105 ± 22.4% and the activity at 10 µM ([5]; Homo sapiens, Keratinocyte, Table 2, ceramide alone, Test 2, * = statistically significant growth inhibition) was 69.9 ± 10%. It also gave an activity at 10 µM ([5]; Homo sapiens, Keratinocyte, Table 2, ceramide alone, Test 3, * = statistically significant growth inhibition) of 66 ± 14%, an activity at 3 µM ([5]; Homo sapiens, Keratinocyte, Table 4, 3.0 μM ceramide, 0 vitamin D3 or metabolite (ethanol vehicle only)) of 87.9 ± 0.8% and an activity at 3 µM [5, 7] of 88 ± 0.8%. It also gave a minimal effective concentration ([5]; Homo sapiens, Keratinocyte, Table 2 summary, only at the highest concentration, 2 out of 3 experiments, read-out: concentration at which statistically significant growth inhibition occurred) of 10 µM.

For `C=C1CC[C@H](O)C/C1=C/C=C1\CCC[C@]2(C)[C@@H]([C@H](C)CCCC(C)(C)O)CC[C@@H]12` [Formula 25-OH--D3, 25-hydroxycholecalciferol], the “conversion in skin / keratinocytes” value (keratinocytes [2]) is given as “converted to 1,25-(OH)2 D3 in keratinocyte cultures”, the “Uptake by keratinocytes” value ([4]; 0 minutes) is given as 2.5 % of total added and the “Uptake by keratinocytes” value ([4]; 2 minutes) is given as 3.2 % of total added. For the same compound, the “Uptake by keratinocytes” value ([4]; 5 minutes) was 0.3 % of total added, the “Uptake by keratinocytes” value ([4]; 10 minutes) was 3.4 % of total added and the “Uptake by keratinocytes” value ([4]; 15 minutes) was 8.3 % of total added. The “Uptake by keratinocytes” value ([4]; 30 minutes) was 8.1 % of total added, the “Uptake by keratinocytes” value ([4]; 60 minutes) was 6.2 % of total added and the “Uptake by keratinocytes” value ([4]; 120 minutes) was 6.8 % of total added. For the same compound, the “Uptake by keratinocytes” value ([4]; 240 minutes) was 9.8 % of total added, the “uptake rate by keratinocytes / skin cells” value [4] was “slower uptake; also recorded: taken up by keratinocytes at a substantially slower rate than 1,25-(OH)2 D3” and the activity at 0.01 µM ([5]; Homo sapiens, Keratinocyte, Table 1, compound alone, 10 nM, Test 2, read-out: DNA synthesis of keratinocytes) was 86.5 ± 9%. The activity at 0.01 µM ([5]; Homo sapiens, Keratinocyte, Table 1, compound alone, 10 nM, Test 3, read-out: DNA synthesis of keratinocytes) was 95.2 ± 6.8%, the activity at 0.1 µM ([5]; Homo sapiens, Keratinocyte, Table 1, compound alone, 100 nM, Test 1, * = statistically significant growth inhibition, read-out: DNA synthesis of keratinocytes) was 86.5 ± 5.4% and the activity at 0.1 µM ([5]; Homo sapiens, Keratinocyte, Table 1, compound alone, 100 nM, Test 2, * = statistically significant growth inhibition, read-out: DNA synthesis of keratinocytes) was 79.1 ± 2.6%. It also gave an activity at 1 µM ([5]; Homo sapiens, Keratinocyte, Table 1, compound alone, 1000 nM, Test 2, * = statistically significant growth inhibition, read-out: DNA synthesis of keratinocytes) of 78.9 ± 5.4%, an activity at 0.001 µM ([5]; Homo sapiens, Keratinocyte, Table 3, 25-OH-D3 alone, 1 nM (second line), read-out: DNA synthesis of keratinocytes) of 99.3 ± 1.91% and an activity at 0.01 µM ([5]; Homo sapiens, Keratinocyte, Table 3, 25-OH-D3 alone, 10 nM, read-out: DNA synthesis of keratinocytes) of 97.2 ± 5.92%. The activity at 0.1 µM ([5]; Homo sapiens, Keratinocyte, Table 3, 25-OH-D3 alone, 100 nM, read-out: DNA synthesis of keratinocytes) was 86.5 ± 5.47%, the activity at 1 µM ([5]; Homo sapiens, Keratinocyte, Table 3, 25-OH-D3 alone, 1000 nM, read-out: DNA synthesis of keratinocytes) was 67.8 ± 5.92% and the activity at 0.001 µM ([5]; Homo sapiens, Keratinocyte, Table 3, 25-OH-D3 alone, first line, concentration printed as 1 nM, read-out: DNA synthesis of keratinocytes) was 100 ± 4.71%. The activity at 0.1 µM ([5]; Homo sapiens, Keratinocyte, Table 5, 100 nM 25-OH-D3, no ceramide, read-out: DNA synthesis of keratinocytes) was 88.5 ± 7.2% and the minimal effective concentration ([5]; Homo sapiens, Keratinocyte, read-out: concentration at which statistically significant cell growth inhibition was consistently observed, Table 1 summary, compound alone, only at this concentration) was 1 µM.

For `CC1=C(/C=C/C(C)=C/C=C/C(C)=C/C(=O)O)C(C)(C)CCC1` [retinoic acid], the keratinocyte differentiation (keratinocytes [1]) is given as “prevents differentiation of keratinocytes” and the HL-60 cell differentiation [6] is given as “induces differentiation of HL-60 cells”.
